In patent US20230357312A1, “Borylated Di-Peptide Amino Acid compositions for use in Boron Neutron Capture Therapy and methods thereof” (TAE Life Sciences, priority 2021, published 2023):
“Also recorded” adds a separate entry of the source.

Tests used:
[1] = Solubility; assay type: physicochemical
[2] = system: AsPC-1 cells; assay: Uptake of BPA and dipeptides in PEPT1 high expressing cells; assay type: cell-based, human; details: PEPT1 high expressing AsPC1 cells
Description: The indicated cancer cell line (A) or FaDu cells (B) were harvested from culture and washed twice with PBS. Cell lines were adjusted to 2 million cells/ml in Hanks Balanced Salt Solution (HBSS). BPA or dipeptide boron compounds were added to cells at the final concentration of 2.5 mM in HBSS and the treated cells were incubated at 37° C. 5% CO2 for 2 hrs with shaking. The cells were collected by centrifugation; washed with cold PBS twice and reconstituted in 1 ml of cold PBS. Then, 50 µl of cell suspension was removed, pelleted, and lysed using RIPA buffer and the protein concentration was determined using BCA assay. The remaining 950 µl was used for boron compounds uptake measurements using ICP-OES.
To this end, 0.5 mL of concentrated nitric acid was added to each cell pellet in a 15 mL conical tube. The tubes were capped and placed in an oven set at 80° C. for 3 hours. […] The boron content in each sample was then measured on an Agilent 5110 ICP-OES using an Agilent SPS4 Autosampler for sample introduction.
The data was analyzed using Agilent’s ICP Expert Software, version 7.4.2.10790. Boron was measured axially at the 249.772 nm wavelength and the internal standard Beryllium was measured axially at the 313.042 nm wavelength. […] Once determined, the boron measurement for each sample was normalized to protein content and final boron uptake results were expressed as ng boron/mg protein. […]

[3] = system: AsPC-1 cells; assay: Uptake inhibition by PEPT1 competitive inhibitor Gly-SAR; assay type: cell-based, human; details: 0.8 mM test compound, with and without Gly-SAR
Description: (§1) In this experiment, uptake of BPA and dipeptide His-BPA (0.8 mM of each) was carried out in FaDu and ASPC-1 in the presence and absence of the indicated concentrations of PEPT1 dipeptide transporter competitive inhibitor Gly-SAR. Normalized boron uptake was determined as in FIG. 15.

[4] = system: FaDu cells; assay: as above; assay type: cell-based, human
Description: as §1

[5] = system: FaDu subcutaneous tumors; assay: Biodistribution of His-BPA, FaDu tumors in vivo; set-up: species or system female CB17 SCID mice; details: His-BPA 4X higher dose than BPA-F
Description: In this experiment, biodistribution of His-BPA was evaluated in vivo using the following protocols. All animal studies were carried out following the “Guide for the Care and Use the Laboratory Animals,” 8th Ed. and Animal Welfare Act (USDA). Human hypopharyngeal squamous cell carcinoma FaDu cells were maintained in DMEM, supplemented with L-glutamine and 10% FBS.
Subcutaneous (s.c.) tumors were generated by injection of 2.5 × 10^6 cancer cells mixed at a 1:1 dilution with Matrigel (Corning Life Sciences) in the right flank of female CB17 SCID mice. Tumor sizes were determined by caliper measurements, and the tumor volume was calculated as width^2×Length/2, wherein width is the smallest dimension and length is the largest dimension. Tumors were allowed to grow untreated until they reached an approximate volume of 300 mm^3. At that point, animals were randomized and allocated to each treatment group based on tumor volume at the time of treatment initiation to ensure similar mean tumor size and variation in each group. Each group received a single dose of BPA at […] or a test article at […] via intravenous tail vein injection. […]
Furthermore, all compounds tested, with the exception of BPA were prepared as 80-100 mg/mL stocks. […] The digested tissues were analyzed by ICP OES to determine the boron concentration.

[6] = system: FaDu, Detroit-562, MeWo, HCC-1954, A549 and AsPC-1 human cancer xenograft models; assay: Dose escalation of boron delivery, all tested xenograft models; assay type: in vivo, CB17 SCID mice; details: 1000 mg/kg, 120 minutes
Description: Tumors were harvested 120 minutes following treatment and boron content determined by ICP-OES. Data are the means ± SD of 5 mice per treatment group.

[7] = system: CT26 xenografts; assay: BNCT study, 12 or 6 minute irradiation at 5 MW; assay type: in vivo, BALB/c mice; details: 800 mg/kg, 12 minutes irradiation at 5 MW, monitored to 22 days
Description: Following one (1) hour of treatment time, mice were irradiated for either 12 minutes (33(A)) or 6 minutes (33(B)) at the Kyoto University Research Reactor (Kyoto, Japan) 1 set at 5 megawatts. Data are the means ± SD of 3 mice per treatment group. Tumors were measured for growth out to 22 days.

[8] = system: CT26 xenografts; assay: BNCT tumor regression study, 6 minute irradiation; assay type: in vivo, BALB/c mice; details: 900 mg/kg, 6 minutes irradiation
Description: In this experiment, CT26 xenografts in BALB/c mice were dosed with 400 mg/kg of BPA or 900 mg/kg of His-BPA or BPA-BPA. Following one (1) hour treatment time, mice were irradiated for 6 minutes at the Kyoto University Research Reactor (Kyoto, Japan) 1 set at 5 megawatts. Data are the means ± SD of 3 mice per treatment group. Tumors were measured for growth out to 36 days and examined for tumor presence at 40 days. BPA and control groups were sacrificed at day 18 due to excessive tumor growth.

## N[C@@H](Cc1c[nH]cn1)C(=O)N[C@@H](Cc1ccc(B(O)O)cc1)C(=O)O [His-BPA, Histidine-BPA]
[1]
  solubility (in words, compared to BPA): high solubility; also recorded: improved solubility
[2]
  boron uptake compared to BPA: to a higher level than BPA
[3]
  effect of Gly-SAR on boron uptake: dose dependent inhibitory effect
[4]; 0.8 mM
  boron signal in PEPT1 negative FaDu cells: does deliver a boron signal
[4]; 0.8 mM test compound, with and without Gly-SAR
  effect of Gly-SAR on boron uptake: no effect
[5]
  boron in the kidneys and pancreas compared to BPA-F: Significantly higher amounts of boron
[6]
  tumor boron compared to BPA at 200 mg/kg: higher boron levels
[7]
  tumor growth after BNCT: significant and similar growth inhibition, even regression
[8]; one treated mouse
  visual inspection and histological examination of the tumor area: lack of tumor tissue and only scar tissue at the original tumor site
[8]; sustained out to 36 days
  tumor growth after BNCT: significant tumor regression
